This note sets out measurements from patent publication US9217014B2, “Antifungal agents and uses thereof” (Cidara Therapeutics, Inc., priority 2011, dated 2015).

Like-named read-outs stand apart in the source and are kept apart here.

One series concerns Candida glabrata. As to the kind of experiment: MIC versus a strain of Candida glabrata in 50% human serum. It counts as cell-based. Here is the method:
MIC values (μg/mL) of anidulafungin, caspofungin, amphotericin B, compound 1, and compound 16 against various Candida species in the presence and absence of 50% human serum were obtained as follows.
Test organisms were obtained from the American Type Culture Collection (Manassas, Va.). The isolates were maintained at −80° C., then thawed and sub-cultured prior to testing.
The MIC assay method followed the procedure described by the Clinical and Laboratory Standards Institute and employed automated liquid handlers to conduct serial dilutions and liquid transfers. The wells in columns 1-12 in standard 96-well microdilution plates were filled with 150 μL of DMSO. These would become the ‘mother plates’ from which ‘daughter’ or test plates would be prepared. The drugs (150 μL at 80× the desired top concentration in the test plates) were dispensed into the appropriate well in column 1 of the mother plates and mixed. Serial 1:1 dilutions were made through Column 11 in the “mother plate”. The wells of column 12 contained no drug and were the organism growth control wells. […]
Plates were covered with a lid, placed in plastic bags, and incubated at 35° C. The Candida isolates were read after 24 h incubation and again at 48 h. […]
For Candida species, the Minimal Inhibitory Concentration (MIC) was read per CLSI guidelines.

Series [1] in a line: Pharmacokinetics in beagle dogs, intravenous. Type of series: in vivo. The note with it: for CI / half-life / Vd: 1.4 mg/kg intravenous slow bolus, mean ± SEM, n = 4 beagle dogs; for half-life / Vd: dog; for half-life: read-out: T ½ (converted); for Vd: read-out: Vz. Here is the method:
The test articles were administered to beagle dogs weighing approximately 6-10 kg. Each test article was dosed at 1.4 mg/kg in aqueous saline (with or without 0.5% Tween) over course of 1-10 minutes. […] The dogs were fasted at least 12 hours prior to each dosing and offered food after the 4-hour blood sample was taken; water was withheld for 1 hour prior to and 4 hours following each dosing event. The dose for each animal was based on its most recent body weight. The test article was injected intravenously via a catheter placed in the cephalic vein as a slow bolus.
Blood was collected via the jugular vein. All blood samples (˜1 mL each) were collected into K3EDTA tubes. Following blood collection, the samples were immediately inverted several times and were held on wet ice pending centrifugation. The samples were centrifuged within ˜30 minutes of collection under refrigeration (˜5° C. for ˜10 minutes at ˜2000 g) to obtain plasma. The plasma was frozen immediately on dry ice after separation. The plasma samples were stored at approximately −70° C. until analysis.
Plasma (100 μL) was precipitated with 400 μL of 0.1% formic acid in acetonitrile containing the internal standard (100 ng/mL pneumocandin). The samples were then capped and vortexed for about 30 seconds followed by centrifugation at 14,000 rpm at room temperature for 10 minutes. Following centrifugation 200 μL of supernatant was transferred to plastic autosampler vials containing 200 μL of 0.1% formic acid in water and vortexed. Samples were then analyzed by LCMSMS.
All pharmacokinetic calculations were performed using WinNonlin version 4.1 (Pharsight Corp) by noncompartmental analysis.

A further series relates to Aspergillus spp. As to the kind of experiment: MEC and MIC values versus Aspergillus spp. It counts as cell-based. Conditions: 48 h; presence and absence of 50% human serum. Here is the method: MEC and MIC values (μg/mL) of anidulafungin, caspofungin, amphotericin B, compound 1, and compound 16 against various Aspergillus species in the presence and absence of 50% human serum were obtained as follows.
Test organisms were obtained from the American Type Culture Collection (Manassas, Va.). The isolates were maintained at −80° C., then thawed and sub-cultured prior to testing. […]
Standardized inoculum of Aspergillus was prepared per CLSI methods. […] After a short time to allow the heavy particles to settle out, a small quantity of the supernatant was dispensed into RPMI and the suspension adjusted to equal 0.5 McFarland turbidity. […]
Plates were covered with a lid, placed in plastic bags, and incubated at 35° C. The Aspergillus plates were incubated for 48 h before reading. […]
Both an MIC and Minimal Effective Concentration (MEC) value was recorded. […]

Setting [2] is: beagle dogs, 1.4 mg/kg intravenous.

As to `CCCCCOc1ccc(-c2ccc(-c3ccc(C(=O)N[C@H]4C[C@@H](O)C(OCC[N+](C)(C)C)NC(=O)C5[C@@H](O)[C@@H](C)CN5C(=O)C([C@@H](C)O)NC(=O)C([C@H](O)[C@@H](O)c5ccc(O)cc5)NC(=O)C5C[C@@H](O)CN5C(=O)C([C@@H](C)O)NC4=O)cc3)cc2)cc1` (stereo partly drawn) [compound 1], the “activity against a strain of Candida glabrata in comparison to anidulafungin” value with Candida glabrata is “superior activity”. For the same compound, in series [1], the CI stood at 0.301 ± 0.0243 mL/min/kg. In series [1] (setting [2]), the “circulating half-life (in words)” value is “surprisingly long circulating half-life” and the “volume of distribution (in words)” value is given as “surprisingly large volume of distribution”. In addition, in series [1] (beagle, in vivo, iv, 1.4 mg/kg), the half-life is 53.1 ± 3.93 h. In series [1] (in vivo), the Vd stood at 1.36 ± 0.0619 L/kg. In addition, the “activity against Aspergillus strains relative to anidulafungin (MEC and MIC)” value in the series with Aspergillus spp. is recorded as “retain their activity”.
As for `CCCCCOc1ccc(-c2ccc(-c3ccc(C(=O)N[C@H]4C[C@@H](O)C(NCC[N+](C)(C)C)NC(=O)C5[C@@H](O)[C@@H](C)CN5C(=O)C([C@@H](C)O)NC(=O)C([C@H](O)[C@@H](O)c5ccc(O)cc5)NC(=O)C5C[C@@H](O)CC5C(=O)C([C@@H](C)O)NC4=O)cc3)cc2)cc1` (stereo partly drawn) [compound 16], the “activity against a strain of Candida glabrata in comparison to anidulafungin” value with Candida glabrata is “superior activity”. Further, the CI in series [1] is 0.365 ± 0.014 mL/min/kg. In series [1] (plasma), the half-life is 27.6 ± 1.11 h and the Vd is 0.874 ± 0.0639 L/kg. Also, the “activity against Aspergillus strains relative to anidulafungin (MEC and MIC)” value in the series with Aspergillus spp. is recorded as “retain their activity”.
